Assay results published in the supplement of paper PMC10307832.

What was measured:
Test in all cases: relative viability (nuclei count vs DMSO), 5 days (fraction); higher = more cells survive
[1] = system: COR-L23
Outline: (§1)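 Lung cancer cell lines were pin-tool dosed in 1536-well plates on the day after seeding, with either a lone drug or a fixed anchor-drug dose plus five library-drug doses (not always all listed) in √10 steps. Nuclei were counted on 4× images after 5 days. Relative viability is the ratio of treated-well to vehicle-well nuclei counts, with each value a median of duplicate plates.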

[2] = system: ChaGo-K-1
Outline: as §1

[3] = system: EMC-BAC-2
Outline: as §1

[4] = system: EPLC-272H
Outline: as §1

[5] = system: H3255
Outline: as §1

[6] = system: HCC-44
Outline: as §1

[7] = system: HCC-827
Outline: as §1

[8] = system: LCLC-103H
Outline: as §1

[9] = system: LU99A
Outline: as §1

[10] = system: NCI-H1395
Outline: as §1

[11] = system: NCI-H1651
Outline: as §1

[12] = system: NCI-H1793
Outline: as §1

[13] = system: NCI-H1944
Outline: as §1

[14] = system: NCI-H2023
Outline: as §1

[15] = system: NCI-H2085
Outline: as §1

[16] = system: NCI-H2087
Outline: as §1

[17] = system: NCI-H2405
Outline: as §1

[18] = system: NCI-H520
Outline: as §1

[19] = system: NCI-H650
Outline: as §1

[20] = system: NCI-H838
Outline: as §1

[21] = system: SK-MES-1
Outline: as §1

## Cc1sc2c(c1C)C(c1ccc(Cl)cc1)=N[C@@H](CC(=O)OC(C)(C)C)c1nnc(C)n1-2 [JQ1] + CC(=O)c1c(C)c2cnc(Nc3ccc(N4CCNCC4)cn3)nc2n(C2CCCC2)c1=O [Palbociclib] (partner 0.5 µM)
[1]; first compound 0.04 µM
  relative viability: 0.336
[1]; first compound 0.1265 µM
  relative viability: 0.193
[1]; first compound 0.4 µM
  relative viability: 0.25
[1]; first compound 1.265 µM
  relative viability: 0.165
[1]; first compound 4 µM
  relative viability: 0.162
[2]; first compound 0.04 µM
  relative viability: 0.942
[2]; first compound 0.1265 µM
  relative viability: 0.909
[2]; first compound 0.4 µM
  relative viability: 0.952
[2]; first compound 1.265 µM
  relative viability: 0.674
[2]; first compound 4 µM
  relative viability: 0.525
[3]; first compound 0.04 µM
  relative viability: 0.496
[3]; first compound 0.1265 µM
  relative viability: 0.441
[3]; first compound 0.4 µM
  relative viability: 0.421
[3]; first compound 1.265 µM
  relative viability: 0.332
[3]; first compound 4 µM
  relative viability: 0.315
[4]; first compound 0.04 µM
  relative viability: 0.315
[4]; first compound 0.1265 µM
  relative viability: 0.252
[4]; first compound 0.4 µM
  relative viability: 0.308
[4]; first compound 1.265 µM
  relative viability: 0.26
[4]; first compound 4 µM
  relative viability: 0.224
[5]; first compound 0.04 µM
  relative viability: 0.303
[5]; first compound 0.1265 µM
  relative viability: 0.321
[5]; first compound 0.4 µM
  relative viability: 0.283
[5]; first compound 1.265 µM
  relative viability: 0.247
[5]; first compound 4 µM
  relative viability: 0.228
[6]; first compound 0.04 µM
  relative viability: 0.96
[6]; first compound 0.1265 µM
  relative viability: 0.942
[6]; first compound 0.4 µM
  relative viability: 1.11
[6]; first compound 1.265 µM
  relative viability: 0.978
[6]; first compound 4 µM
  relative viability: 0.728
[7]; first compound 0.04 µM
  relative viability: 0.528
[7]; first compound 0.1265 µM
  relative viability: 0.388
[7]; first compound 1.265 µM
  relative viability: 0.279
[7]; first compound 4 µM
  relative viability: 0.252
[8]; first compound 0.04 µM
  relative viability: 0.46
[8]; first compound 0.1265 µM
  relative viability: 0.438
[8]; first compound 0.4 µM
  relative viability: 0.42
[8]; first compound 1.265 µM
  relative viability: 0.419
[8]; first compound 4 µM
  relative viability: 0.328
[9]; first compound 0.04 µM
  relative viability: 0.465
[9]; first compound 0.4 µM
  relative viability: 0.287
[9]; first compound 1.265 µM
  relative viability: 0.185
[9]; first compound 4 µM
  relative viability: 0.176
[10]; first compound 0.04 µM
  relative viability: 0.591
[10]; first compound 0.1265 µM
  relative viability: 0.556
[10]; first compound 0.4 µM
  relative viability: 0.602
[10]; first compound 1.265 µM
  relative viability: 0.443
[10]; first compound 4 µM
  relative viability: 0.395
[11]; first compound 0.04 µM
  relative viability: 0.494
[11]; first compound 0.1265 µM
  relative viability: 0.416
[11]; first compound 0.4 µM
  relative viability: 0.403
[11]; first compound 1.265 µM
  relative viability: 0.299
[11]; first compound 4 µM
  relative viability: 0.282
[12]; first compound 0.04 µM
  relative viability: 0.331
[12]; first compound 0.1265 µM
  relative viability: 0.307
[12]; first compound 0.4 µM
  relative viability: 0.274
[12]; first compound 1.265 µM
  relative viability: 0.335
[12]; first compound 4 µM
  relative viability: 0.334
[13]; first compound 0.04 µM
  relative viability: 0.327
[13]; first compound 0.1265 µM
  relative viability: 0.308
[13]; first compound 0.4 µM
  relative viability: 0.232
[13]; first compound 1.265 µM
  relative viability: 0.217
[13]; first compound 4 µM
  relative viability: 0.179
[14]; first compound 0.04 µM
  relative viability: 0.338
[14]; first compound 0.1265 µM
  relative viability: 0.281
[14]; first compound 0.4 µM
  relative viability: 0.225
[14]; first compound 1.265 µM
  relative viability: 0.135
[14]; first compound 4 µM
  relative viability: 0.105
[15]; first compound 0.04 µM
  relative viability: 0.458
[15]; first compound 0.1265 µM
  relative viability: 0.427
[15]; first compound 0.4 µM
  relative viability: 0.508
[15]; first compound 1.265 µM
  relative viability: 0.418
[15]; first compound 4 µM
  relative viability: 0.462
[16]; first compound 0.04 µM
  relative viability: 0.234
[16]; first compound 0.1265 µM
  relative viability: 0.214
[16]; first compound 0.4 µM
  relative viability: 0.153
[16]; first compound 1.265 µM
  relative viability: 0.157
[16]; first compound 4 µM
  relative viability: 0.163
[17]; first compound 0.04 µM
  relative viability: 0.571
[17]; first compound 0.4 µM
  relative viability: 0.522
[17]; first compound 1.265 µM
  relative viability: 0.471
[17]; first compound 4 µM
  relative viability: 0.311
[18]; first compound 0.04 µM
  relative viability: 0.197
[18]; first compound 0.1265 µM
  relative viability: 0.196
[18]; first compound 0.4 µM
  relative viability: 0.184
[18]; first compound 1.265 µM
  relative viability: 0.154
[18]; first compound 4 µM
  relative viability: 0.143
[19]; first compound 0.04 µM
  relative viability: 0.328
[19]; first compound 0.1265 µM
  relative viability: 0.259
[19]; first compound 0.4 µM
  relative viability: 0.228
[19]; first compound 1.265 µM
  relative viability: 0.176
[19]; first compound 4 µM
  relative viability: 0.164
[20]; first compound 0.04 µM
  relative viability: 0.205
[20]; first compound 0.1265 µM
  relative viability: 0.194
[20]; first compound 0.4 µM
  relative viability: 0.167
[20]; first compound 1.265 µM
  relative viability: 0.164
[20]; first compound 4 µM
  relative viability: 0.162
[21]; first compound 0.04 µM
  relative viability: 0.295
[21]; first compound 0.1265 µM
  relative viability: 0.264
[21]; first compound 0.4 µM
  relative viability: 0.234
[21]; first compound 1.265 µM
  relative viability: 0.213
[21]; first compound 4 µM
  relative viability: 0.23
